Experimental data from patent publication US20230293526A1, “METHOD FOR TREATING CANCER WITH A REVERSE TRANSCRIPTASE INHIBITOR” (PrimeFour Therapeutics, Inc., priority 2020, published 2023).

tested on: human LINE-1; test: Human LINE-1 (L1) retrotransposition dual-luciferase reporter assay in HeLa cells; type: cell-based; conditions: 72 hours, read-out: Human LINE-1 IC50 (Human L1 activity inhibition)
Procedure: Representative compounds were tested for inhibition of retrotransposition activity of human LINE-1 (L1) retrotransposition reporter assay in HeLa cells according to the following procedure.
Human Cervical Adenocarcinoma Cells (HeLa) were cultured in Dulbecco's Modified Eagle's Medium (DMEM) containing 4500 mg/L glucose, L-glutamine, sodium pyruvate and sodium bicarbonate, supplemented with 10% of heat inactivated fetal bovine serum (FBS). Cells were grown at 37° C. in an atmosphere of 5% CO2. The dual luciferase-encoding plasmid pYX017 was provided by Prof Wenfeng An (Xie, et al., 2011, Nucleic Acids Res).
The reporter assay was performed in 96-well white, optical bottom plates (Thermo Fisher, 165306). 24 hours prior to transfection, HeLa cells were seeded in a density of 2,500 cells per well, in 50 μL of DMEM, 10% FBS media volume. Cells were incubated at 37° C. in an atmosphere of 5% CO2. Seeding was optimized to achieve approximately 30% cell confluency on the day of transfection. A transfection mix was prepared by combining transfection reagent FuGENE® HD (Promega, E2311) and plasmid DNA (100 ng per well) in a 3:1 ratio, in OpiMEM media (Thermo Fisher, 31985062). Next, 5 μL of the transfection mix was combined with 20 μL of DMEM, 10% FBS media, and 25 μL of this mix was added into each well of an assay plate. In each assay plate one column remained untransfected to serve as a blank luminescence signal.
Serial dilution of test compounds was performed in DMSO and transferred to medium. Next, 25 μL of media-diluted compounds series were transferred to an assay plate containing cells and transfection media. The final concentration of DMSO in treated wells was 0.2%. Serial dilutions of compounds were added to an assay plate immediately after transfection. Compounds were tested in triplicates. The assay plate was then incubated with transfection reagent and compounds at 37° C. in an atmosphere of 5% CO2 for 72 hours.
Luciferase reporter activity was quantified with the Dual-Luciferase® Reporter Assay System (Promega) following the manufacturer's manual, with a passive lysis buffer volume increased to 30 μL and lysis incubation time increased to 20 min at room temperature with gentle shaking, to ensure complete cell lysis. Luminescence was measured using a SpectraMax i3×Multi-Mode Microplate Reader, with integration times of 100 ms and 10 ms applied to measure FLuc and RLuc signals, respectively. Relative LNE-1 activity was calculated as Firefly signal/Renilla signal*10,000. In order to determine IC50 values for each compound, dose response data were fit to a logistic using non-linear regression.

SMILES	IC50 [µM]
C#C[C@]1(CO)O[C@@H](n2cnc3c(N)nc(N)nc32)C[C@@H]1O [compound 22]	23.4
C[C@H](Cn1cnc2c(N)ncnc21)OCP(=O)(O)O [Tenofovir, reference compound]	2.7
C#C[C@]1(CO)O[C@@H](n2cnc3c(N)nc(N)nc32)C[C@@H]1O [compound 12]	0.0062
CC[C@]1(CO)O[C@@H](n2cnc3c(N)nc(N)nc32)C[C@@H]1O [compound 27]	0.0026

same assay, conditions: Homo sapiens, 72 hours, read-out: Human LINE-1 IC50 (Human L1 activity inhibition)

SMILES	IC50 [µM]
CC(C)OC(=O)[C@H](C)N[P@](=O)(CO[C@H](C)Cn1cnc2c(N)ncnc21)Oc1ccccc1 [Tenofovir Alafenamide (TAF), Tenofovir Alafenamide, reference compound]	0.01

same assay, conditions: Homo sapiens, HeLa, 72 h, read-out: Human LINE-1 IC50 (Human L1 activity inhibition)

SMILES	IC50 [µM]
Nc1nc(=O)n([C@@H]2CS[C@H](CO)O2)cc1F [Emtricitabine (FTC), Emtricitabine, reference compound]	0.48
Nc1ccn([C@@H]2CS[C@H](CO)O2)c(=O)n1 [Lamivudine, reference compound]	0.66
C=C1[C@H](CO)[C@@H](O)C[C@@H]1n1cnc2c(=O)[nH]c(N)nc21 [Entecavir, reference compound]	1.45
Nc1ccn([C@H]2CC[C@@H](CO)O2)c(=O)n1 [Zalcitabine, reference compound]	0.066
Cc1cn([C@H]2C=C[C@@H](CO)O2)c(=O)[nH]c1=O [Stavudine, reference compound]	0.75
C#C[C@]1(CO)O[C@@H](n2cnc3c(N)ncnc32)C[C@@H]1O [compound 23]	> 50
C=C[C@]1(CO)O[C@@H](n2ccc(N)nc2=O)C[C@@H]1O [compound 24]	0.01
C=C[C@@]1(CO)C=C[C@H](n2cc(C)c(=O)[nH]c2=O)O1 [compound 18]	12.5
Cc1cn([C@H]2C[C@H](N=[N+]=[N-])[C@@H](CO)O2)c(=O)[nH]c1=O [AZT, zidovudine, reference compound]	0.63
O=C1Nc2ccc(Cl)cc2[C@@](C#CC2CC2)(C(F)(F)F)O1 [Efavirenz, reference compound]	> 50
C#C[C@]1(CO)O[C@@H](n2cc(C)c(=O)[nH]c2=O)C[C@@H]1O [compound 2]	0.39
C#C[C@]1(CO)O[C@@H](n2cc(Br)c(=O)[nH]c2=O)C[C@@H]1O [compound 4]	0.49
C=C[C@]1(CO)O[C@@H](n2cnc3c(N)nc(F)nc32)C[C@@H]1O [compound 20, (2R,3S,5R)-5-(6-amino-2-fluoro-9H-purin-9-yl)-2-(hydroxymethyl)-2-vinyltetrahydrofuran-3-ol]	0.011
C#C[C@@]1(CO)C=C[C@H](n2cc(Br)c(=O)[nH]c2=O)O1 [compound 17]	0.91
C#C[C@@]1(CO)C=C[C@H](n2cc(C)c(=O)[nH]c2=O)O1 [Censavudine, reference compound]	0.07
CC[C@]1(CO)O[C@@H](n2cc(C)c(=O)[nH]c2=O)C[C@@H]1O [compound 26]	2.05
O=c1[nH]cnc2c1ncn2[C@H]1CC[C@@H](CO)O1 [Didanosine, reference compound]	0.53
Nc1ncnc2c1ncn2CCOCP(=O)(O)O [Adefovir, reference compound]	> 6.25
C#C[C@]1(CO)O[C@@H](n2cc(C)c(N)nc2=O)C[C@@H]1O [compound 6]	18.6
CC#C[C@]1(CO)C=C[C@H](n2cc(C)c(=O)[nH]c2=O)O1 [compound 16]	> 25
Cc1ccnc2c1NC(=O)c1cccnc1N2C1CC1 [Nevirapine, reference compound]	> 50
C#C[C@@]1(CO)C=C[C@H](n2cnc3c(N)nc(F)nc32)O1 [compound 19]	> 12.5
Nc1ccn([C@H]2CO[C@@H](CO)S2)c(=O)n1 [Apricitabine, reference compound]	6.34
CC(C)OC(=O)OCOP(=O)(CO[C@H](C)Cn1cnc2c(N)ncnc21)OCOC(=O)OC(C)C [Tenofovir Disoproxil, reference compound]	0.19
